Assay results as given in ChEMBL document CHEMBL1154836, “Synthesis of glycoside derivatives of hydroxyanthraquinone with ability to dissolve and inhibit formation of crystals of calcium oxalate. Potential compounds in kidney stone therapy” (Eur J Med Chem, 2010).

Assays:
[1] = Induction of calcium oxalate dissolution assessed as increase in calcium concentration after 5 days by flame photometry relative to untreated control; format: physicochemical; conditions: 120 h
L929 = assay: Cytotoxicity against mouse L929 cells at 500 ug/ml; format: cell-based
[2] = Induction of surgically removed human kidney stone dissolution assessed as increase in calcium concentration after 5 days by flame photometry relative to untreated control; format: functional
A549 = assay: Cytotoxicity against human A549 cells at 500 ug/ml; format: cell-based
[3] = Inhibition of calcium oxalate crystal formation assessed as change of shift in titration end point by conductometric titration; format: functional

Compound	Activity [1] [%]	Activity (L929)	Activity [2] [%]	Activity (A549)	Activity [3] [µL]
O=C1c2ccccc2C(=O)c2c1ccc(O[C@@H]1O[C@H](CO)[C@H](O)[C@H](O)[C@H]1O)c2O	432	Non-toxic	1500	Non-toxic	70
O=C1c2ccccc2C(=O)c2c1ccc(O)c2O [ATHRAQUINONES A]	246	Toxic	717	Toxic	40
O=C1c2ccccc2C(=O)c2c1ccc(O[C@@H]1O[C@H](CO)[C@@H](O)[C@H](O)[C@H]1O)c2O	595	Non-toxic	1583	Non-toxic	80
O=C1c2ccccc2C(=O)c2c(O)ccc(O)c21 [QUINIZARIN]	205	Toxic	833	Toxic	30
O=C1c2ccccc2C(=O)c2c(O[C@@H]3O[C@H](CO)[C@@H](O)[C@H](O)[C@H]3O)ccc(O)c21	541	Non-toxic	2000	Non-toxic	60
O=C1c2ccc(O[C@@H]3O[C@H](CO)[C@@H](O)[C@H](O)[C@H]3O)c(O)c2C(=O)c2c(O)ccc(O)c21	1513	–	4833	–	180
O=C1c2ccc(O)c(O)c2C(=O)c2c(O)ccc(O)c21 [QUINALIZARIN]	1324	–	4167	–	90
O=C1c2ccc(O[C@@H]3O[C@H](CO)[C@H](O)[C@H](O)[C@H]3O)c(O)c2C(=O)c2c(O)ccc(O)c21	513	–	1667	–	170
